We go through 25 compounds from patent US9382257B2, “Substituted pyrrolo[2,3-b]pyrazines as serine/threonine kinase inhibitors” (Genentech, Inc., priority 2002, dated 2016).

A value given as a limit tells only on which side of the number the result lay.

The target of experiment [1] is T1, human ERK-2 (Mitogen Activated Kinase 1) (Homo sapiens, UniProt P28482).
T1 construct: n-terminal 6-His fusion protein in E. coli and corresponding to aa 8-360; 6-His (N); made in house; host or cells: E. coli
Kind of experiment: ERK-2 Enzymatic Assay (Example 2). Type of experiment: biochemical. The note with it: Omnia peptide S/T17, 25 μM ATP, read-out: ERK Inhibition IC50. The method, then:
Compounds were tested in an enzymatic assay using human ERK-2 (Mitogen Activated Kinase 1), recombinantly expressed as an n-terminal 6-His fusion protein in E. coli and corresponding to aa 8-360. The substrate used was the fluorescent Omnia peptide S/T17 (Invitrogen of Carlsbad, Calif.; Cat. KNZ1171C). Test compounds were diluted in DMSO in 3-fold serial dilutions at 100× final concentrations. […] The assay was run at ambient temperature in a white 384-well polypropylene plate (Nunc, Inc of Naperville, Ill.; Cat. 267462) collecting data every 50 seconds for approximately 30 minutes on an Envision plate reader (PerkinElmer, Inc. of Waltham, Mass.); Excitation 340 nm/Emission 495 nm. The data collected from each well was fit to a straight line and the resulting rates were used to calculate percent of control. Percent of control was plotted against compound concentration and IC50 values were determined using a four-parameter fit. Representative date is in TABLE 2 (infra).

Experiment [2] has as its system PMA-stimulated P90RSK(Ser380) phosphorylation in HepG2 cells. Kind of experiment: Cellular P90RSK(Ser380) Phosphorylation Assay (Example 4). The note with it: Homo sapiens, 1.5 hour compound incubation, PMA 100 ng/mL, normalized to GAPDH, read-out: RSK Inhibition IC50. Type of experiment: cell-based. The method, then:
Cellular P90RSK(Ser380) Phosphorylation Assay
Inhibition of PMA-stimulated P90RSK(Ser380) phosphorylation was determined by the following in vitro cellular mechanistic assay, which comprises incubating cells with a compound for 1.5 hours and quantifying fluorescent pP90RSK(Ser380) signal on fixed cells and normalizing to GAPDH signal.
Materials and Methods: HepG2 cells were obtained from ATCC and grown in DMEM supplemented with 10% fetal bovine serum. Cells were plated in 96-well plates at 35,000 cells/well and allowed to attach overnight at 37° C./5% CO2. Diluted compounds were then added at a final concentration of 0.5% DMSO. After 1.5 hour compound incubation, cells were stimulated with the addition of PMA (phorbol 12-myristate 13-acetate) at a final concentration of 100 ng/mL; the PMA stimulation was a 30-minute incubation at 37° C./5% CO2. After the 30-minute PMA stimulation, cells were washed with PBS and fixed in 3.7% formaldehyde in PBS at room temperature for 15-20 minutes. This was followed by another wash in PBS and then permeabilization in 100% MeOH at room temperature for 10-15 minutes. Following the permeabilization incubation, cells were washed in PBS/0.05% Tween-20, followed by a block in Odyssey blocking buffer (LI-COR Biosciences) for at least 1 hour. Antibodies to phosphorylated P90RSK(Ser380) (Cell Signaling #9335, rabbit monoclonal) and GAPDH (Fitzgerald 10R-G109a, mouse monoclonal) were added to the cells and incubated overnight at 4° C. pP90RSK(Ser380) antibody was used at a 1:250 dilution; GAPDH was used at a 1:10,000 dilution. After washing with PBS/0.05% Tween-20, the cells were incubated with fluorescently-labeled secondary antibodies (Anti-rabbit-Alexa Flour680, Invitrogen Cat#A21109; Anti-mouse-IRDye800CW, Rockland Inc. Cat#610-131-121) for 1 hour. Both secondary antibodies were used at a 1:1000 dilution. Cells were then washed and analyzed for fluorescence at both wavelengths using the Odyssey Infrared Imaging System (LI-COR Biosciences). Phosphorylated P90RSK(Ser380) signal was normalized to GAPDH signal. Representative date is in TABLE 2 (infra).

T1 sequence (P28482 8-360): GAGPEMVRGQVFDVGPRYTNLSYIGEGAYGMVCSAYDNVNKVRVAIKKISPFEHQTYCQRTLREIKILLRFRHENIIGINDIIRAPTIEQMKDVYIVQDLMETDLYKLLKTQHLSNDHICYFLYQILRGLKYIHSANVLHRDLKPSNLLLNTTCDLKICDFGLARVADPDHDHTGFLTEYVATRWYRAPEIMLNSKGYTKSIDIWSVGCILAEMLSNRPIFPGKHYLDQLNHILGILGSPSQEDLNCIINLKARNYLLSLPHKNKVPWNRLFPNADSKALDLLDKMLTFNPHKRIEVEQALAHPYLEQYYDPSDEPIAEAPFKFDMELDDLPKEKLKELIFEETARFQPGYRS

What is called IC50 is the concentration that gives 50% inhibition. Take `Cc1[nH]ncc1-c1cnc2[nH]cc(-c3cnn(Cc4ccc(F)cc4F)c3)c2n1` [I-1, 7-[1-(2,4-difluoro-benzyl)-1H-pyrazol-4-yl]-2-(5-methyl-1H-pyrazol-4-yl)-5H-pyrrolo[2,3-b]pyrazine]: the IC50 in experiment [1] was 1.23 nM; in experiment [2], 242 nM.
`Cc1[nH]ncc1-c1cnc2[nH]cc(-c3cnn(Cc4ccc(F)c(Cl)c4)c3)c2n1` [I-2, 7-[1-(3-chloro-4-fluoro-benzyl)-1H-pyrazol-4-yl]-2-(5-methyl-1H-pyrazol-4-yl)-5H-pyrrolo[2,3-b]pyrazine]: the IC50 in experiment [1] was determined as 2.36 nM; in experiment [2], 276 nM.
As to `Fc1cccc(Cn2cc(-c3c[nH]c4ncc(-c5cn[nH]c5)nc34)cn2)c1` [I-3, 7-[1-(3-fluoro-benzyl)-1H-pyrazol-4-yl]-2-(1H-pyrazol-4-yl)-5H-pyrrolo[2,3-b]pyrazine], the IC50 was 2.75 nM in experiment [1] and 403 nM in experiment [2].
Take `Cc1[nH]ncc1-c1cnc2[nH]cc(-c3cnn(Cc4ccccc4C#N)c3)c2n1` [I-4, 2-{4-[2-(5-methyl-1H-pyrazol-4-yl)-5H-pyrrolo[2,3-b]pyrazin-7-yl]-pyrazol-1-ylmethyl}-benzonitrile]: the values for the IC50 in experiment [1] and in experiment [2] were 1.3 nM and 202 nM, respectively.
With `Cc1[nH]ncc1-c1cnc2[nH]cc(-c3cnn(Cc4ccccc4[N+](=O)[O-])c3)c2n1` [I-5, 2-(5-methyl-1H-pyrazol-4-yl)-7-[1-(2-nitro-benzyl)-1H-pyrazol-4-yl]-5H-pyrrolo[2,3-b]pyrazine], the figures for the IC50 in experiment [1] and in experiment [2] were 1.5 nM and 97.2 nM, respectively.
Consider `Cc1[nH]ncc1-c1cnc2[nH]cc(-c3cnn(Cc4c(F)cccc4Cl)c3)c2n1` [I-6, 7-[1-(2-chloro-6-fluoro-benzyl)-1H-pyrazol-4-yl]-2-(5-methyl-1H-pyrazol-4-yl)-5H-pyrrolo[2,3-b]pyrazine], for which the IC50 in experiment [1] came out at 1.84 nM; in experiment [2], 214 nM.
As for `COc1ccc(Cn2cc(-c3c[nH]c4ncc(-c5cn[nH]c5C)nc34)cn2)cc1F` [I-7, 7-[1-(3-fluoro-4-methoxy-benzyl)-1H-pyrazol-4-yl]-2-(5-methyl-1H-pyrazol-4-yl)-5H-pyrrolo[2,3-b]pyrazine], the IC50 amounted to 1.89 nM in experiment [1] and 340 nM in experiment [2].
Consider `Cc1[nH]ncc1-c1cnc2[nH]cc(-c3cnn(Cc4ccccc4OC(F)F)c3)c2n1` [I-8, 7-[1-(2-difluoromethoxy-benzyl)-1H-pyrazol-4-yl]-2-(5-methyl-1H-pyrazol-4-yl)-5H-pyrrolo[2,3-b]pyrazine], for which the IC50 in experiment [1] stood at 2.5 nM; in experiment [2] it was 191 nM.
`Cc1[nH]ncc1-c1cnc2[nH]cc(-c3cnn([C@@H](C)c4ccccc4Cl)c3)c2n1` [I-9, 7-{1-[(S)-1-(2-chloro-phenyl)-ethyl]-1H-pyrazol-4-yl}-2-(5-methyl-1H-pyrazol-4-yl)-5H-pyrrolo[2,3-b]pyrazine]: the IC50 came to 2.8 nM in experiment [1] and 299 nM in experiment [2].
In the case of `Cc1n[nH]c(C)c1-c1cnc2[nH]cc(-c3cnn(Cc4cccc(F)c4)c3)c2n1` [I-10, 2-(3,5-dimethyl-1H-pyrazol-4-yl)-7-[1-(3-fluoro-benzyl)-1H-pyrazol-4-yl]-5H-pyrrolo[2,3-b]pyrazine], the IC50 came out at 2.7 nM in experiment [1] and 387 nM in experiment [2].
For `Fc1cccc(Cn2cc(-c3c[nH]c4ncc(-c5ccncc5)nc34)cn2)c1` [I-11, 7-[1-(3-fluoro-benzyl)-1H-pyrazol-4-yl]-2-pyridin-4-yl-5H-pyrrolo[2,3-b]pyrazine], the IC50 is 2.77 nM in experiment [1] and 501 nM in experiment [2].
Regarding `Cc1[nH]ncc1-c1cnc2[nH]cc(-c3cnn(Cc4cccc5cccnc45)c3)c2n1` [I-15, 8-{4-[2-(5-methyl-1H-pyrazol-4-yl)-5H-pyrrolo[2,3-b]pyrazin-7-yl]-pyrazol-1-ylmethyl}-quinoline], the IC50 turned out to be 14 nM in experiment [1] and 651 nM in experiment [2].
Take `Cc1n[nH]cc1-c1cnc2[nH]cc(-c3cnn(C(C)(C)c4ccccc4)c3)c2n1` [I-17, 7-[1-(1-methyl-1-phenyl-ethyl)-1H-pyrazol-4-yl]-2-(3-methyl-1H-pyrazol-4-yl)-5H-pyrrolo[2,3-b]pyrazine]: the IC50 in experiment [1] turned out to be 36 nM; in experiment [2], 2300 nM.
The corresponding values for `Cc1n[nH]cc1-c1cnc2[nH]cc(-c3cnn(CCc4ccc(C(F)(F)F)cc4)c3)c2n1` [I-18, 2-(3-methyl-1H-pyrazol-4-yl)-7-{1-[2-(4-trifluoromethyl-phenyl)-ethyl]-1H-pyrazol-4-yl}-5H-pyrrolo[2,3-b]pyrazine] are 44.4 nM and no less than 50000 nM.
As to `c1ccc(Cn2cc(-c3c[nH]c4ncc(-c5ccncc5)nc34)cn2)cc1` [I-21, 7-(1-benzyl-1H-pyrazol-4-yl)-2-(pyridin-4-yl)-5H-pyrrolo[2,3-b]pyrazine], the IC50 amounted to 6.9 nM in experiment [1] and 1300 nM in experiment [2].
On to `Cc1[nH]ncc1-c1cnc2[nH]cc(-c3cnn(Cc4cc(F)ccc4Cl)c3)c2n1` [I-24, 7-[1-(2-chloro-5-fluoro-benzyl)-1H-pyrazol-4-yl]-2-(5-methyl-1H-pyrazol-4-yl)-5H-pyrrolo[2,3-b]pyrazine], for which the results for the IC50 in experiment [1] and in experiment [2] were 2.02 nM and 371 nM, respectively.
Consider `Cc1[nH]ncc1-c1cnc2[nH]cc(-c3cnn(C(C)c4ccccc4Cl)c3)c2n1` (stereo not shown) [I-25, 7-{1-[1-(2-chloro-phenyl)-ethyl]-1H-pyrazol-4-yl}-2-(5-methyl-1H-pyrazol-4-yl)-5H-pyrrolo[2,3-b]pyrazine], for which the IC50 in experiment [1] was 2.2 nM; in experiment [2] it was 200 nM.
`COc1cccc(F)c1Cn1cc(-c2c[nH]c3ncc(-c4cn[nH]c4C)nc23)cn1` [I-26]: the results for the IC50 in experiment [1] and in experiment [2] were 3.4 nM and 518 nM, respectively.
The corresponding values for `Cc1[nH]ncc1-c1cnc2[nH]cc(-c3cnn(Cc4cc(F)ccc4C#N)c3)c2n1` [I-27, 4-fluoro-2-{4-[2-(5-methyl-1H-pyrazol-4-yl)-5H-pyrrolo[2,3-b]pyrazin-7-yl]-pyrazol-1-ylmethyl}-benzonitrile] are 24.8 nM and 2000 nM.
Regarding `Cc1[nH]ncc1-c1cnc2[nH]cc(-c3ccc(OCCN4CCOCC4)nc3)c2n1` [II-2, 2-(5-methyl-1H-pyrazol-4-yl)-7-[6-(2-morpholin-4-yl-ethoxy)-pyridin-3-yl]-5H-pyrrolo[2,3-b]pyrazine], the IC50 in experiment [1] stood at 30.1 nM; in experiment [2], 5700 nM.
Take `O=C(NCc1cncc(-c2c[nH]c3ncc(-c4cn[nH]c4)nc23)c1)c1ccc(F)cc1` [II-3, 4-fluoro-N-{5-[2-(1H-pyrazol-4-yl)-5H-pyrrolo[2,3-b]pyrazin-7-yl]-pyridin-3-ylmethyl}-benzamide]: the IC50 in experiment [2] was 1600 nM.
In the case of `Cc1cc(C(=O)NCc2cncc(-c3c[nH]c4ncc(-c5cn[nH]c5)nc34)c2)no1` [II-4], the IC50 in experiment [1] was 198 nM; in experiment [2], 3700 nM.
For the compound `Cc1nc(C(=O)NCc2cncc(-c3c[nH]c4ncc(-c5cn[nH]c5)nc34)c2)c(C)o1` [II-5, 2,5-dimethyl-oxazole-4-carboxylic acid {5-[2-(1H-pyrazol-4-yl)-5H-pyrrolo[2,3-b]pyrazin-7-yl]-pyridin-3-ylmethyl}-amide], the IC50 was 218 nM in experiment [1] and no less than 50000 nM in experiment [2].
For `Cc1[nH]ncc1-c1cnc2[nH]cc(-c3ccc(NCc4ccccc4)nc3)c2n1` [II-7, benzyl-{5-[2-(5-methyl-1H-pyrazol-4-yl)-5H-pyrrolo[2,3-b]pyrazin-7-yl]-pyridin-2-yl}-amine], the IC50 worked out at 29.9 nM in experiment [1] and 5700 nM in experiment [2].
With `Cc1[nH]ncc1-c1cnc2[nH]cc(-c3ccc(OCC4CC4)nc3)c2n1` [II-8, 7-(6-cyclopropylmethoxy-pyridin-3-yl)-2-(5-methyl-1H-pyrazol-4-yl)-5H-pyrrolo[2,3-b]pyrazine], the IC50 in experiment [1] worked out at 46.7 nM; in experiment [2], 5900 nM.
